This note sets out measurements from ChEMBL document CHEMBL4138294, “Cybastacines A and B: Antibiotic Sesterterpenes from a Nostoc sp. Cyanobacterium” (2018).

Common to all, as to assay type: functional
Assay [1] concerns Mycobacteroides abscessus. The experiment in a line: Antibacterial activity against Mycobacterium abscessus clinical isolate by CLSI M07-A9 protocol based assay.
For a further assay, the system named is Nocardia carnea. The experiment in a line: Antibacterial activity against Nocardia carnea clinical isolate by CLSI M07-A9 protocol based assay.
Another assay concerns Nocardia cyriacigeorgica. The experiment in a line: Antibacterial activity against Nocardia cyriacigeorgica clinical isolate by CLSI M07-A9 protocol based assay.
Another assay concerns Tsukamurella pulmonis. The experiment in a line: Antibacterial activity against Tsukamurella pulmonis clinical isolate by CLSI M07-A9 protocol based assay.
A further assay deals with Streptococcus pyogenes. The experiment in a line: Antibacterial activity against Streptococcus pyogenes clinical isolate by CLSI M07-A9 protocol based assay.
A further assay deals with Enterococcus faecalis. The assay is described as follows: Antibacterial activity against Enterococcus faecalis clinical isolate by CLSI M07-A9 protocol based assay.
A further assay concerns Enterococcus faecium. The assay is described as follows: Antibacterial activity against Enterococcus faecium clinical isolate by CLSI M07-A9 protocol based assay.
A further assay concerns Staphylococcus aureus. The assay is described as follows: Antibacterial activity against Staphylococcus aureus clinical isolate by CLSI M07-A9 protocol based assay.
The subject of assay [2] is Staphylococcus epidermidis. The assay is described as follows: Antibacterial activity against Staphylococcus epidermidis clinical isolate by CLSI M07-A9 protocol based assay.

With `CC1(C)CCC[C@]2(C)C3=C(CC[C@@H]12)[C@@]1(C)CC[C@@]2(C)NC(=N)NC[C@@H]2[C@@]1(C)C[C@H]3O`, the MIC in assay [1] is at most 16 mg/L; in the assay on Nocardia carnea, at most 16 mg/L; against Nocardia cyriacigeorgica, at most 16 mg/L; in the assay with Tsukamurella pulmonis it was at most 8 mg/L; in the assay with Streptococcus pyogenes it was at most 32 mg/L; against Enterococcus faecalis, at most 32 mg/L. The MIC (against Enterococcus faecium; against Staphylococcus aureus; in [2]) was at most 32 mg/L throughout.

On to `CC1(C)CCC[C@]2(C)[C@@H]3C(=CC[C@@H]12)[C@@]1(C)CC[C@@]2(C)NC(=N)NC[C@@H]2[C@@]1(C)C[C@H]3O`, for which the MIC is at most 4 mg/L in [1]; at most 4 mg/L against Nocardia carnea; at most 4 mg/L against Nocardia cyriacigeorgica; at most 2 mg/L in the assay on Tsukamurella pulmonis; at most 4 mg/L with Streptococcus pyogenes; at most 4 mg/L with Enterococcus faecalis. For the same compound, the MIC (in the assay on Enterococcus faecium; against Staphylococcus aureus; in [2]) was at most 4 mg/L each time.

Turning to `C[C@@H](O)[C@H]1C(=O)N2C(C(=O)O)=C(SCCNC=N)C[C@H]12` [IMIPENEM ANHYDROUS], the MIC (in [1]; in the assay with Nocardia carnea; with Nocardia cyriacigeorgica; with Tsukamurella pulmonis) was at most 8 mg/L throughout.

In the case of `CN[C@H](CC(C)C)C(=O)N[C@H]1C(=O)N[C@@H](CC(N)=O)C(=O)N[C@H]2C(=O)N[C@H]3C(=O)N[C@H](C(=O)N[C@H](C(=O)O)c4cc(O)cc(O)c4-c4cc3ccc4O)[C@H](O)c3ccc(c(Cl)c3)Oc3cc2cc(c3O[C@@H]2O[C@H](CO)[C@@H](O)[C@H](O)[C@H]2O[C@H]2C[C@](C)(N)[C@H](O)[C@H](C)O2)Oc2ccc(cc2Cl)[C@H]1O` [VANCOMYCIN], the MIC with Streptococcus pyogenes was at most 16 mg/L; in the assay with Enterococcus faecalis, at most 8 mg/L; against Enterococcus faecium, at most 8 mg/L; in the assay on Staphylococcus aureus, at most 8 mg/L; in [2] it was at most 8 mg/L.

As a reminder, the MIC is the smallest concentration in the dilution series that meets the test's criterion for growth inhibition. A high value points to weaker potency.
